This is an account of results in patent publication US20110009332A1, “Therapeutic Treatment Of Wounds” (SOUTHWEST RESEARCH INSTITUTE, priority 2009, published 2011).

Where a SMILES comes first, the peptide text is derived from it. The star is where a group is joined. Cbz = O=C(OCc1ccccc1)*; OtBu = CC(C)(C)O*

This experiment has as its system BMP-2. In words: BMP-2 gene expression (qPCR, normalized over 18S) in human dermal fibroblasts. It counts as cell-based. On the procedure: An examination of gene expression of BMP-2 was conducted using a number of proteasome inhibitors including, proteasome inhibitor-1, curcumin, MG-132 and bortezomib. Human neonatal dermal fibroblasts (AllCells, Catalog No. HN006001) were maintained in Dulbecco's modified Eagle's medium (DMEM) supplemented with 10% fetal bovine serum. Early passage cells were plated at 2×10^4 cells/cm^2 and grown in humidified 5% CO2 at 37° C. for 24 hours. Spent media was replaced the following day with assay media including Proteasome inhibitor-1 was added in DMEM at 1 μM and 0.1 μM. Untreated cells were used as the control group. For the human osteogenesis PCR array, the experimental group was treated only at 1 μM.
Phenol-chloroform extraction was performed to isolate the total RNA for real time polymerase chain reaction array. More specifically, the total RNA was prepared using TRI REAGENT (Ambion, product number 9738), wherein the total RNA was obtained from the human neonatal dermal fibroblasts. Note that isolation was performed as per the instructions provided with the TRI REAGENT. The RNA was used for subsequent quantitative polymerase chain reaction (qPRC) gene expression of BMP-2 measured using hydrolysis probes (TAQMAN probes available from Applied Biosystems) as described further below.
Concentration and integrity of the obtained total RNA was assessed by absorbance in a spectrophotometer at 260 nm and 280 nm and by electrophoresis in 1% agarose with formaldehyde loading dye. For TAQMAN gene expression assays, cDNA was synthesized from 2 μg of total RNA using the High Capacity cDNA Reverse Transcription Kit (Applied Biosystems, product number 4368814), again following the protocol supplied with the kit. The resulting cDNA was diluted 1:10.
For TAQMAN gene expression, gene-specific fluorescent labeled TAQMAN primers for FAM-BMP2 (Applied Biosystems, product number Hs00154192.m1) and TAQMAN reference VIC-18S ribosomal RNA (Applied Biosystems, product number 4310893E) were used to target the gene of interest. A cocktail of universal master mix (Applied Biosystems, product number 4369016) was prepared individually for both set of primers which contained Taq Polymerase, dNTPs, and buffer. Template cDNA's were added separately to respective individual wells in triplicate samples. PCR was performed on StepOne Plus Real Time System instrument (Applied Biosystems). The amplification program consisted of 1 cycle of 95° C. with 10 minute hold (hot start) followed by 50 cycles of 95° C. with 15 second annealing hold and 1 minute 60° C. specified acquisition hold.
For human osteogenisis PCR array, total RNA was prepared using silica matrix purification using RNEASY MINI KIT (Qiagen, product number 74101) according to the manufacturer's recommendations. cDNA was synthesized from 1 μg of purified DNA-free RNA accordingly to RT^2First Strand Kit (SABiosciences, C-03). The resulting cDNA was diluted 1:30 and amplified. The procedure for the PCR array using real-time PCR is based on the RT^2 Profiler PCR array system instructions for Human Osteogenesis (SABiosciences, product number PAHS-026C). A cocktail reaction mix was setup as recommended by the PCR manufacturer (SABiosceiences, product number PA-012). PCR was performed using the same temperature parameters as used with the StepOne Plus Real Time System instrument. The Ct value of endogenous reference gene (i.e. 18s) was used to control for input RNA and then used to normalize target gene (i.e. BMP-2) tested from the same cDNA sample (Δ Ct), and then calibrated to an internal reference sample (ΔΔCt). Change in gene expression was determined by the expression 2̂-(ΔΔCt).
In addition, as alluded to above a similar methodology using 10 μmM and 100 μM of curcumin, 0.1 μM and 1 μM of bortezomib, and 0.1 μM and 1 μM of MG-132 proteasome inhibitors was performed.
For orientation: In qPCR the cycle at which signal appears reflects the starting amount.

Where [1] appears, read: 0.1 μM inhibitor, FIG. 24, non-treated approximately 1.50.
The mark [2] stands for this setting: 1 μM inhibitor, FIG. 24, non-treated approximately 1.50.

As for `CC[C@H](C)[C@H](NC(=O)OCc1ccccc1)C(=O)N[C@@H](CCC(=O)OC(C)(C)C)C(=O)N[C@@H](C)C(=O)N[C@H](C=O)CC(C)C` [PS-1, Z-Ile-Glu(OBu^t)-Ala-Leu-H] (Cbz-IE(OtBu)AL-aldehyde), the “BMP-2/18S mRNA levels” value reads like this: (0.1 μm PS-1, FIG. 22, non-treated control approximately 1.38) 9.01 au; (1.0 μm PS-1, FIG. 22, non-treated control approximately 1.38) 12.5 au.

With `COc1cc(/C=C/C(=O)CC(=O)/C=C/c2ccc(O)c(OC)c2)ccc1O` [curcumin], the “BMP-2/18S mRNA levels” value is, setting by setting: (10 μM curcumin, FIG. 23, non-treated approximately 1.38) 2.87 a.u; (100 μM curcumin, FIG. 23, non-treated approximately 1.38) 0.903 a.u.

Take `CC(C)C[C@H](NC(=O)[C@H](Cc1ccccc1)NC(=O)c1cnccn1)B(O)O` [bortezomib]: the “BMP-2/18S mRNA levels” value is reported as 6.55 a.u under setting [1] and 9.68 a.u under setting [2].

On to `CC(C)C[C@@H](C=O)NC(=O)[C@H](CC(C)C)NC(=O)[C@H](CC(C)C)NC(=O)OCc1ccccc1` [MG132] (Cbz-Leu-Leu-Leu-aldehyde), for which the “BMP-2/18S mRNA levels” value is 5.95 a.u under setting [1] and “approximately 9.51 a.u” under setting [2].
